# US20250275982A1, “SOLID FORM FORMULATION COMPRISING CHROMIUM OR COPPER OR A VITAMIN, COMPOSITIONS AND USES THEREOF” (ALESCO S.R.L., priority 2019, published 2025)
# Counter-ions that a name gives are not always drawn.
# Tests used:
# Format in all cases: cell-based
# [1] = system: differentiated mouse myoblasts; assay: Glucose uptake study: intracellular glucose colorimetric assay in insulin-treated differentiated mouse myoblasts
# Description: (§1) In vitro efficacy study: evaluation of the modulation of the carbohydrate metabolism by two compositions comprising a chromium salt (Composition 1 and Composition 2) in a culture of differentiated mouse myoblasts.
# (§2) The following endpoints were considered:—glucose uptake, by means of intracellular glucose assay; • expression of GLUT-4, insulin-sensitive glucose transporter; and • ATP content, the primary source of energy for cellular biochemical reactions.
# (§3) The experimental model used in this study is differentiated mouse myoblasts (ATCC Number: CRL-1772, lot 70013341), cultured in Dulbecco's Modified Eagle's Medium (DMEM) supplemented with 10% foetal bovine serum at 37° C., 5% CO2. The formation of myotubes is induced by adding horse serum.
# (§4) The experimental protocol provided for: • Untreated control cells (CTR-); • Insulin-treated control cells (100 nM); • Insulin-treated cells and the Compounds in question (Composition 1 and Composition 2); • Insulin-treated cells and the reference Compound (metformin).
# (§5) Three concentrations of each composition under study (Composition 1 and 2) were tested: 500 μM, 100 µM and 50 μM (Cr). The preparation of the samples involved the use of DMSO as solvent.
# (§6) The reference Compound (metformin hydrochloride) was tested at 2000 μm. • The treatment of the cells with Composition 1 and 2 and reference Composition extended for 24 hours.
# (§7) The cultures were then treated with insulin (100 nM) for 4 hours. A source of glucose was added to the media in the glucose uptake evaluation study. The treatments were conducted in quadruplicate.
# (§8) At the end of the treatments the cells were lysed to obtain a cell homogenate on which it was assayed: • glucose, by means of colorimetric assay; • ATP, by means of colorimetric assay; • GLUT-4, by means of ELISA technique.
# (§9) Commercially available colorimetric and ELISA kits were used.
# (§10) The colorimetric kits use a specific probe, a mixture of reaction enzymes and a curve with known amounts of each standard.
# (§11) The data obtained in the experimental groups treated with the samples subject of the study were subjected to statistical analysis and compared with each other and with insulin according to the t-test. Variations are considered significant for p<0.05.
# (§12) Glucose assay: the results (Table 2 and FIG. 1) are expressed as mean content±st.dev. (expressed in nanomoles) and as a mean % variation with respect to treatment with insulin. Statistically significant data with respect to insulin are reported with *, while ^∘ indicates differences between tested compounds.
# [2] = system: GLUT-4; assay: GLUT-4 study: ELISA of GLUT-4 in cell homogenate of insulin-treated differentiated mouse myoblasts
# Description: as §1, §2, §3, §4, §5, §6, §7, §8, §9
# ELISA kits exploit the competitive binding of an antigen (in this case GLUT-4) with its primary antibody. The immune complex (antigen-antibody) is in turn recognised by a secondary antibody conjugated to a peroxidase. The addition of the peroxidase substrate produces a colorimetric reaction with intensity proportional to the amount of immune complexes present and thus to the amount of bound target molecule. Quantitative determination exploits a calibration curve constructed with known and increasing concentrations of standard marker.
# as §11
# as §12, with “GLUT-4” for “Glucose”, “3” for “2”, “2)” for “1)”, “μg/L)” for “nanomoles)”
# [3] = system: differentiated mouse myoblasts; assay: ATP study: colorimetric assay of ATP content in insulin-treated differentiated mouse myoblasts
# Description: as §1, §2, §3, §4, §5, §6, §7, §8, §9, §10, §11
# as §12, with “ATP” for “Glucose”, “4” for “2”, “3)” for “1)”
# [4] = insulin 100 nM for 4 hours, insulin-treated control cells
# [5] = 2000 um for 24 hours + insulin 100 nM for 4 hours
# [6] = 50 μM (Cr) for 24 hours + insulin 100 nM for 4 hours
# [7] = 100 μM (Cr) for 24 hours + insulin 100 nM for 4 hours
# [8] = 500 μM (Cr) for 24 hours + insulin 100 nM for 4 hours
# [9] = at 500 µM and 100 µM, significance vs. insulin p<0.05
compound,measurement,setting,value
Insulin: insulin (100 nM) used to treat control cells and all treated cultures,"mean value (glucose assay, mean content)",[1]; [4],9.42 nmol
same,"mean value (GLUT-4 assay, mean content)",[2]; [4],5.24 µg/L
same,"mean value (ATP assay, mean content)",[3]; [4],3.92 nmol
"CN(C)C(=N)N=C(N)N [Metformin, metformin hydrochloride]",% var. vs. insulin (glucose assay),[1]; 2000 um + insulin,24.6%
same,"mean value (glucose assay, mean content)",[1]; [5],11.73 nmol
same,% var. vs. insulin (GLUT-4 assay),[2]; 2000 um + insulin,28.0%
same,"mean value (GLUT-4 assay, mean content)",[2]; [5],6.71 µg/L
same,% var. vs. insulin (ATP assay),[3]; 2000 um + insulin,17.6%
same,"mean value (ATP assay, mean content)",[3]; [5],4.61 nmol
chromium (III) picolinate [CR picolinate],"mean value (glucose assay, mean content)",[1]; [6],10.24 nmol
same,% var. vs. insulin (glucose assay),[1]; 50 μM + insulin,8.7%
same,"mean value (glucose assay, mean content)",[1]; [7],11.08 nmol
same,% var. vs. insulin (glucose assay),[1]; 100 μM + insulin,17.6%
same,"mean value (glucose assay, mean content)",[1]; [8],11.24 nmol
same,% var. vs. insulin (glucose assay),[1]; 500 μM + insulin,19.3%
same,"glucose uptake, behaviour over the three concentrations, in words","[1]; 500, 100 and 50 μM",showed a dose-dependent behaviour
same,"insulin-dependent glucose uptake, result in words",[1]; [9],effective in significantly increasing insulin-dependent glucose uptake
same,"mean value (GLUT-4 assay, mean content)",[2]; [6],5.60 µg/L
same,% var. vs. insulin (GLUT-4 assay),[2]; 50 μM + insulin,6.8%
same,"mean value (GLUT-4 assay, mean content)",[2]; [7],6.35 µg/L
same,% var. vs. insulin (GLUT-4 assay),[2]; 100 μM + insulin,21.1%
same,"mean value (GLUT-4 assay, mean content)",[2]; [8],6.50 µg/L
same,% var. vs. insulin (GLUT-4 assay),[2]; 500 μM + insulin,24.0%
same,"GLUT-4 levels, behaviour over the three concentrations, in words","[2]; 500, 100 and 50 μM",showed a dose-dependent behaviour
same,"levels of GLUT-4 carrier, result in words",[2]; [9],effective in significantly increasing the levels of GLUT-4 carrier
same,"mean value (ATP assay, mean content)",[3]; [6],4.09 nmol
same,% var. vs. insulin (ATP assay),[3]; 50 μM + insulin,4.3%
same,"mean value (ATP assay, mean content)",[3]; [7],4.78 nmol
same,% var. vs. insulin (ATP assay),[3]; 100 μM + insulin,22.1%
same,"mean value (ATP assay, mean content)",[3]; [8],5.35 nmol
same,% var. vs. insulin (ATP assay),[3]; 500 μM + insulin,36.5%
same,"intracellular ATP, behaviour over the three concentrations, in words","[3]; 500, 100 and 50 μM",showed a dose-dependent behaviour
same,"intracellular ATP, statistical comparison between the compositions, in words",[3]; at 50 μM,does not show performance differences
same,"levels of intracellular ATP, result in words",[3]; [9],effective in significantly increasing the levels of intracellular ATP
